From publication PMC9037752, “A Novel Angiotensin I-Converting Enzyme Inhibitory Peptide Derived From Goat Milk Casein Hydrolysate Modulates Angiotensin II-Stimulated Effects on Vascular Smooth Muscle Cells” (Frontiers in Nutrition, 2022)
Values belong to the molecule of their own block, whether it stands above or below them. Ends that are not written are not given here.

What was measured:
[1] = target: T1, Angiotensin Converting Enzyme from rabbit lung (Oryctolagus cuniculus, UniProt P12822); experiment: ACE-inhibitory activity assay (RP-HPLC, HHL substrate); assay type: biochemical; conditions: HHL 6.5 mM, ACE 0.2 U, 37°C, 60 min, pH 8.3; HA at 228 nm by RP-HPLC; mean ± SD; sample concentration not given
T1 construct: Angiotensin Converting Enzyme from rabbit lung; purchased Sigma-Aldrich; host or cells: rabbit lung tissue
T1 sequence (P12822 34-1310): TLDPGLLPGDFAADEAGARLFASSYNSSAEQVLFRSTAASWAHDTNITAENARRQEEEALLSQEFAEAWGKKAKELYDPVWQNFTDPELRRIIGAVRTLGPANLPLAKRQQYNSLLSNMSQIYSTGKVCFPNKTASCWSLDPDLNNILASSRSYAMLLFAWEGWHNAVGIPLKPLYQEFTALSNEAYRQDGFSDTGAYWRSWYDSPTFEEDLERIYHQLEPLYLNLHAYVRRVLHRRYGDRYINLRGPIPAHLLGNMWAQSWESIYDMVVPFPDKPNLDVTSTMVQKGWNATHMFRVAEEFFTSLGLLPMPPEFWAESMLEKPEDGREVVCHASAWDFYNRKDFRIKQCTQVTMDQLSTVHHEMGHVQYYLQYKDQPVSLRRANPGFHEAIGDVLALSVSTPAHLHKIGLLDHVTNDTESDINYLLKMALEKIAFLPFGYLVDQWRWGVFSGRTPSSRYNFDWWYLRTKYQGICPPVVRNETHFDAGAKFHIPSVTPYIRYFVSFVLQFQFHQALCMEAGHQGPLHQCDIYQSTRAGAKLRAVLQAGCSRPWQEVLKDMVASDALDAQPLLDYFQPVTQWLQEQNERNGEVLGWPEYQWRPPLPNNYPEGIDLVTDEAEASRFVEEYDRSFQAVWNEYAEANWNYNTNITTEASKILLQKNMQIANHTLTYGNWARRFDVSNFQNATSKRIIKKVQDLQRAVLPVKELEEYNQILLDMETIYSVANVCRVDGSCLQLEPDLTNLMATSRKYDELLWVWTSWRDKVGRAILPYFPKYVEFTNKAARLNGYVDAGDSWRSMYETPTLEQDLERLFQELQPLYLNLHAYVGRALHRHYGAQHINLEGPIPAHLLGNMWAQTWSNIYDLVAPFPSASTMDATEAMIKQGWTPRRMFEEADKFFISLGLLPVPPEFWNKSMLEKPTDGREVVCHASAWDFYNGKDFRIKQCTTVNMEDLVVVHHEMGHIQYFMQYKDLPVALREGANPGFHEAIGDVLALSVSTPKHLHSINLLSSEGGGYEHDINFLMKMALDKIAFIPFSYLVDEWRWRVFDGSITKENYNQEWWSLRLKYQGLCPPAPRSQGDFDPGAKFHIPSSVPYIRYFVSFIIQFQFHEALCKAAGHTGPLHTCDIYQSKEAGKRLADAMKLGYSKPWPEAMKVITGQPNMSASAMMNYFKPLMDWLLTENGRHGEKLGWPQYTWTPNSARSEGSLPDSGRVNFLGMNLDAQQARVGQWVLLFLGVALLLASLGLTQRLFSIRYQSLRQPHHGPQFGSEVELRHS
Description: (§1) ACE inhibitory activity was measured using an RP-HPLC method with Hippuryl-His-Leu (HHL) as a substrate, which generated hippuric acid (HA) under enzymatic hydrolysis ([19]). The sample was dissolved in a borax-boric acid buffer containing 0.15 M NaCl (pH = 8.3). Firstly, add 10 μL ACE (0.2 U) to the sample tube and blank tube, respectively. At the same time, add 10 μL of sample to the sample tube, and add 10 μL of buffer and 80 μL of 1 M HCl to the blank tube, then pre-incubate at 37°C for 5 min. The reaction was initiated by adding 30 μL HHL (6.5 mM) and incubated for 60 min at the same temperature until 80 μL 1 M HCl was added to terminate the reaction.
ACE inhibitory activity (%) was confirmed by monitoring the formation of HA at 228 nm as detected by RP-HPLC on a C18 column (250 × 4.6 mm, 5 μm, Ecosil). The mobile phase was 25% acetonitrile and 75% water with 0.01% trifluoroacetic acid with a flow rate of 1 mL/min. The inhibition activity was calculated using the following equation:
Inhibition activity(%)=A-B-A0/A-A0×100%
Where, A = the HA peak area of the control; B = the HA peak area of the sample; A0 = the HA peak area of control with HCL before pre-incubated.
The inhibitory activity of the hydrolysates or collected fractions was expressed as percentage of ACE inhibition at a given protein concentration ([20]).

[2] = target: T1, Angiotensin Converting Enzyme from rabbit lung; experiment: Inhibitory kinetics study (Lineweaver-Burk plot); assay type: biochemical; conditions: different HHL and peptide concentrations
Description: Briefly, the enzyme activities were measured with different concentrations of the substrate (HHL) and the ACE inhibitory pattern in the presence of the inhibitor was determined with a Lineweaver–Burk plot.

[3] = target: T1, Angiotensin Converting Enzyme from rabbit lung; experiment: ACE inhibitory activity after in vitro gastrointestinal digest; assay type: biochemical
Description: as §1
In vitro digestion of the potent purified ACE inhibitory peptide was carried out according to the reported method, with some adjustments ([22], [23]). Peptide (0.4 mL, 1.5 mg mL^−1) was incubated with 2% (w/w) α-amylase, pepsin, or trypsin at 37°C.
In successive digestion tests, the peptide was first dissolved in buffer solution (pH 6.8) to 2 mg mL^−1 and incubated with α-amylase for 5 min. Then the pH was decreased to pH 2 with the addition of 1 M HCl. Subsequently, the gastric digestion was initiated by adding pepsin at an enzyme-substrate ratio of 2:100 (w/w). The reaction was stopped after 2 h by raising the pH to 8.0 with 1 M NaOH, and trypsin was added to the reactor to continue gastrointestinal digestion for 4 h. Last, the reaction mixture was heated for 15 min in boiling water to inactivate the enzyme.

A7r5 cells [4] = experiment: Cell cytotoxicity test (CCK-8); assay type: cell-based, rat; conditions: 1–200 μg mL^−1, 24 h, CCK-8, P > 0.05
Description: The cytotoxic effects of FPQYLQYPY in cell culture were evaluated using the Cell Counting Kit-8. First, A7r5 cells were seeded at 1 × 10^4 cells per well into 96-well plates (Costar, Corning, NY, USA) and cultured in a 5% CO2 incubator at 37°C for 24 h. Then, the medium of each well was replaced by 100 μL of fresh medium with different concentrations of FPQYLQYPY (0, 1, 5, 10, 50, 100, or 200 μg mL^−1). After further incubation for 24 h, 10 μL CCK-8 solution was added to each well. Then, the plate was incubated for another 2 h.

A7r5 cells [5] = experiment: Wound healing assay of Ang II-stimulated VSMCs; assay type: cell-based, rat; conditions: 100 μg mL^−1, Ang II 1 μM, 24 h, ImageJ
Description: Migration of A7r5 cells was evaluated using the wound healing assay ([25]). Three lines were drawn horizontally on the back of each hole on the 6-well plate with a marker. Cells in logarithmic growth phase were evenly seeded into 6-well plates with 2 × 10^5 cells per well, and grown in complete medium until the cells covered the bottom of the plate, then the medium was replaced by quiescing medium for overnight.
Afterwards, a sterile 200 μL spear head was used to quickly delimit at an average equal distance in the vertical direction according to the marking line, and washed with PBS to remove the floating cells. […] The migration distance was analyzed by ImageJ software.

A7r5 cells [6] = experiment: Transwell cell migration assay of Ang II-stimulated VSMCs; assay type: cell-based, rat; conditions: 48 h, Ang II in lower chamber, crystal violet, absorbance 570 nm
Description: A7r5 cells were collected and suspended in DMEM (1% FBS), and then the density was adjusted to 2 × 10^5 cells ml^−1. In each group, cell suspensions with or without FPQYLQYPY were cultured in the upper chamber of a Transwell (8.0 μm, Corning, NY, USA) ([26]), and at the same time, the lower chamber was filled with or without Ang II for 48 h. […] After rinsing with PBS, a cotton swab was used to remove the upper unmigrated cells. The migratory cells were observed and photographed under an inverted microscope. Last, a 33% acetic acid solution was added to quantify the crystal violet, and the absorbance of samples was measured at a wavelength of 570 nm using a microplate reader.

A7r5 cells [7] = experiment: Real time quantitative RT-PCR of differentially expressed genes; assay type: cell-based, rat; conditions: FPQYLQYPY-treated group vs Ang II-treated group
Description: Total RNA was extracted from A7r5 cells using TRIzol reagent, according to the manufacturer's specifications. The information of primer sequences is shown in Supplementary Table 1. RT reactions were performed in a GeneAmp® PCR System 9700 (Applied Biosystems, USA). Then, Real-time PCR was performed using the LightCycler® 480 II Real-time PCR Instrument (Roche, Swiss). The relative expression level was calculated using the 2^−ΔΔCt.

A7r5 cells [8] = conditions: co-treatment 10, 50, 100 μg mL^−1 with Ang II 0.1 μM, 24 h, CCK-8
Description: The rat aortic vascular smooth muscle cell line A7r5, was purchased from Cell bank of Chinese Academy of Sciences (Shanghai, China). A7r5 cells between passage 8 and 20 were grown in DMEM supplemented with 10% FBS and antibiotics until they reached confluence. For experiments, the confluent cells were placed in a quiescing medium (DMEM + 1% FBS + antibiotics) ([24]) for 24 h, before treatment with different concentrations of [sequence] and Ang II for different time periods.
Cell proliferation was measured by the Cell Counting Kit-8. A7r5 cells were seeded at 5 × 10^3 cells per well into 96-well plates and grown in DMEM with 10% of FBS for 24 h, then the medium was replaced by quiescing medium overnight. The cells were co-treated with different concentrations of [sequence] (0, 10, 50, 100 μg mL^−1) and Ang II (0.1 μM) for 24 h. The absorbance of samples at a wavelength of 450 nm was measured using a microplate reader. The cell survival rate (%) was determined by the percentage of living cells in the test wells compared to the control wells.

ACE = conditions: peptides <3 kDa from fermented goat milk; cited from earlier work
Source text: Among them, VLPVPQKAV ...

[9] = target: T2, Angiotensin Converting Enzyme from rabbit lung (rabbit) (UniProt P12822)
T2 sequence: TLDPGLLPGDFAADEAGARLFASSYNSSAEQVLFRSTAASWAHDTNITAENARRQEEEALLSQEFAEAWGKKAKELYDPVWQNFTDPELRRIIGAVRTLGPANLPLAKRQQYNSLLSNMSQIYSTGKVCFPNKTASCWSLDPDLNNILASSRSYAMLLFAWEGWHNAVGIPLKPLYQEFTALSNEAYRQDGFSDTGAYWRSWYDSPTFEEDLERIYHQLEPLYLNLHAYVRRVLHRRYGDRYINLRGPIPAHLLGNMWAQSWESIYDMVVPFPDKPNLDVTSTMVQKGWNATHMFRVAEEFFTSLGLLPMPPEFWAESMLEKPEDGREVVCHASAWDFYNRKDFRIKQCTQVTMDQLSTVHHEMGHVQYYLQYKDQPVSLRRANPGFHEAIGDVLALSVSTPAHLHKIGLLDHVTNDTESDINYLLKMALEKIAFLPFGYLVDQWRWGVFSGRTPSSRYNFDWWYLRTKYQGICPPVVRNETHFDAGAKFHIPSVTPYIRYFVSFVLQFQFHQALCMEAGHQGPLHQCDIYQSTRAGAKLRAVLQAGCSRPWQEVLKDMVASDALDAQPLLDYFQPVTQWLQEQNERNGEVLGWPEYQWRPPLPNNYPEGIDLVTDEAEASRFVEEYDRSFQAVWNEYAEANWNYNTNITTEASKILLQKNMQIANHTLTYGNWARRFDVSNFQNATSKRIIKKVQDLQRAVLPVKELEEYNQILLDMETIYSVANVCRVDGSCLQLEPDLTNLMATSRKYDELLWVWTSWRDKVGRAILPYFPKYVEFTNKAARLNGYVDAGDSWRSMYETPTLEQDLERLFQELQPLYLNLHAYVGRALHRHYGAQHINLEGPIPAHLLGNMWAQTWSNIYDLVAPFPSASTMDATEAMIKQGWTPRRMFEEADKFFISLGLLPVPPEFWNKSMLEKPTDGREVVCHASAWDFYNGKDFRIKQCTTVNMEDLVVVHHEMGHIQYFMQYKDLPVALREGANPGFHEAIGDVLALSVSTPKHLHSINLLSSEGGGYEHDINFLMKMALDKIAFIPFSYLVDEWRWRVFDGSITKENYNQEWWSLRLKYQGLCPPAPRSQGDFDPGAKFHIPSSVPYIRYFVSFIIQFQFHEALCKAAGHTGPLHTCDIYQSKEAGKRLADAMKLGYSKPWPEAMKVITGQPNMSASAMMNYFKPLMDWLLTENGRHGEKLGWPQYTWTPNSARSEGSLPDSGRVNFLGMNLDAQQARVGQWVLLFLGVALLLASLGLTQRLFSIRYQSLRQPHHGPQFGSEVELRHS

[10] = target: T2, Angiotensin Converting Enzyme from rabbit lung (rabbit); remark: listed apart in the source
[11] = before digestion (inactivated enzyme), mean ± SD

Molecule: FPQYLQYPY [FPQYLQYPY, also synthesized]
ACE inhibition rate [1]: 71.19 ± 0.71%
Inhibition pattern against ACE [2]: non-competitive
ACE inhibitory (%), oral digestion (α-Amylase), Digested ([3]; 2% (w/w) α-amylase, pH 6.8, 5 min, 37°C, mean ± SD): 57.95 ± 0.22%
ACE inhibitory (%), gastric digestion (Pepsin), Original [3, 11]: 54.12 ± 1.56%
ACE inhibitory (%), intestinal digestion (Trypsin), Original [3, 11]: 49.86 ± 1.68%
ACE inhibitory (%), oral digestion (α-Amylase), Original [3, 11]: 53.47 ± 7.32%
ACE inhibitory (%), gastric digestion (Pepsin), Digested ([3]; pepsin 2:100 (w/w), pH 2, 2 h, 37°C, mean ± SD): 56.41 ± 1.91%
ACE inhibitory (%), intestinal digestion (Trypsin), Digested ([3]; trypsin 2% (w/w), pH 8.0, 4 h, 37°C, mean ± SD): 45.76 ± 0.42%
Change of ACE inhibitory activity after incubation with the digestive enzymes ([3]; α-amylase, pepsin, trypsin, 37°C, read-out ACE inhibition): no significant difference
Cytotoxic effect on A7r5 cells (A7r5 cells [4]): no obvious cytotoxic effect
Distance of the wound healing area (migration) (A7r5 cells [5]): restore the distance of the wound healing area to the level of the control group
Cell migration in Transwell experiment (A7r5 cells [6]): the decrease in the level of cell migration was noteworthy
Cox5b mRNA expression (A7r5 cells [7]): downregulated
Efna4 mRNA expression (A7r5 cells [7]): downregulated
Igf1r mRNA expression (A7r5 cells [7]): downregulated
Itga3 mRNA expression (A7r5 cells [7]): downregulated
Myl4 mRNA expression (A7r5 cells [7]): upregulated
Plcb3 mRNA expression (A7r5 cells [7]): downregulated
Shc4 mRNA expression (A7r5 cells [7]): upregulated
Taok3 mRNA expression (A7r5 cells [7]): downregulated
Tgfb1 mRNA expression (A7r5 cells [7]): upregulated
Proliferation of Ang II-stimulated VSMCs (A7r5 cells [8]): significantly decreased the percentage of proliferating cells

Molecule: VLPVPQKAVPQ
ACE-inhibitory activity (ACE): good ACE-inhibitory activity

Molecule: VLPVPQKVVPQ
ACE-inhibitory activity (ACE): good ACE-inhibitory activity

ACE inhibitory (%), undigested peptide ('Original') of the gastric digestion step (pepsin) [9]: 54.1%
ACE inhibitory (%), undigested peptide ('Original') of the intestinal digestion step (trypsin) [9]: 49.9%
ACE inhibitory (%), undigested peptide ('Original') of the oral digestion step (α-amylase) [9]: 53.5%
ACE-inhibitory ability (%) of the purified fraction F3 (HHL substrate, hippuric acid by RP-HPLC; concentration not given) [10]: 71.2%
B1: ACE-inhibitory peptide Phe-Pro-Gln-Tyr-Leu-Gln-Tyr-Pro-Tyr (…) (peptide)
peptide: FPQYLQYPY
